Calls of active or inactive are those of the source. No rule for the calls is given here.
Test system: CCRIS mutagenicity, Ames/micronucleus/aberration tests
Assay: CCRIS mutagenicity studies
[1] = Test System: AMES SALMONELLA TYPHIMURIUM, Strain/Indicator: TA98, Metabolic Activation: NONE, Method: PREINCUBATION
[2] = Test System: AMES SALMONELLA TYPHIMURIUM, Strain/Indicator: TA98, Metabolic Activation: NONE, Method: STANDARD PLATE
[3] = Test System: AMES SALMONELLA TYPHIMURIUM, Strain/Indicator: TA100, Metabolic Activation: NONE, Method: STANDARD PLATE

O=P(O)(O)O
mutagenic call (End Point: IN VITRO CHROMOSOMAL ABERRATIONS, Test System: CHO CELLS, Metabolic Activation: NONE): inactive; negative | mutagenic call (End Point: IN VITRO CHROMOSOMAL ABERRATIONS, Test System: CHO CELLS, Metabolic Activation: RAT, LIVER, S-9, AROCLOR 1254): active; positive | mutagenic call (Test System: AMES SALMONELLA TYPHIMURIUM, Strain/Indicator: TA97, Metabolic Activation: HAMSTER, LIVER, S-9, AROCLOR 1254, Method: PREINCUBATION): inactive; negative | mutagenic call (Test System: AMES SALMONELLA TYPHIMURIUM, Strain/Indicator: TA97, Metabolic Activation: NONE, Method: PREINCUBATION): inactive; negative | mutagenic call (Test System: AMES SALMONELLA TYPHIMURIUM, Strain/Indicator: TA97, Metabolic Activation: NONE, Method: STANDARD PLATE): inactive; negative | mutagenic call (Test System: AMES SALMONELLA TYPHIMURIUM, Strain/Indicator: TA97, Metabolic Activation: RAT, LIVER, S-9, AROCLOR 1254, Method: PREINCUBATION): inactive; negative | mutagenic call (Test System: AMES SALMONELLA TYPHIMURIUM, Strain/Indicator: TA97, Metabolic Activation: RAT, LIVER, S-9, PHENOBARBITAL, Method: STANDARD PLATE): inactive; negative | mutagenic call (Test System: AMES SALMONELLA TYPHIMURIUM, Strain/Indicator: TA97, Metabolic Activation: S-9, Method: PREINCUBATION): inactive; negative | mutagenic call (Test System: AMES SALMONELLA TYPHIMURIUM, Strain/Indicator: TA98, Metabolic Activation: HAMSTER, LIVER, S-9, AROCLOR 1254, Method: PREINCUBATION): inactive; negative | mutagenic call [1]: inactive; negative | mutagenic call [2]: inactive; negative | mutagenic call (Test System: AMES SALMONELLA TYPHIMURIUM, Strain/Indicator: TA98, Metabolic Activation: RAT, LIVER, S-9, AROCLOR 1254, Method: PREINCUBATION): inactive; negative | mutagenic call (Test System: AMES SALMONELLA TYPHIMURIUM, Strain/Indicator: TA98, Metabolic Activation: RAT, LIVER, S-9, PHENOBARBITAL, Method: STANDARD PLATE): inactive; negative | mutagenic call (Test System: AMES SALMONELLA TYPHIMURIUM, Strain/Indicator: TA100, Metabolic Activation: HAMSTER, LIVER, S-9, AROCLOR 1254, Method: PREINCUBATION): inactive; negative | mutagenic call (Test System: AMES SALMONELLA TYPHIMURIUM, Strain/Indicator: TA100, Metabolic Activation: NONE, Method: PREINCUBATION): inactive; negative | mutagenic call [3]: inactive; negative | mutagenic call (Test System: AMES SALMONELLA TYPHIMURIUM, Strain/Indicator: TA100, Metabolic Activation: RAT, LIVER, S-9, AROCLOR 1254, Method: PREINCUBATION): inactive; negative | mutagenic call (Test System: AMES SALMONELLA TYPHIMURIUM, Strain/Indicator: TA100, Metabolic Activation: RAT, LIVER, S-9, PHENOBARBITAL, Method: STANDARD PLATE): inactive; negative | mutagenic call (Test System: AMES SALMONELLA TYPHIMURIUM, Strain/Indicator: TA102, Metabolic Activation: NONE, Method: PREINCUBATION): inactive; negative | mutagenic call (Test System: AMES SALMONELLA TYPHIMURIUM, Strain/Indicator: TA102, Metabolic Activation: RAT, LIVER, S-9, AROCLOR 1254, Method: PREINCUBATION): inactive; negative | mutagenic call (Test System: AMES SALMONELLA TYPHIMURIUM, Strain/Indicator: TA102, Metabolic Activation: S-9, Method: PREINCUBATION): inactive; negative | mutagenic call (Test System: AMES SALMONELLA TYPHIMURIUM, Strain/Indicator: TA104, Metabolic Activation: NONE, Method: STANDARD PLATE): inactive; negative | mutagenic call (Test System: AMES SALMONELLA TYPHIMURIUM, Strain/Indicator: TA104, Metabolic Activation: RAT, LIVER, S-9, PHENOBARBITAL, Method: STANDARD PLATE): inactive; negative | mutagenic call (Test System: AMES SALMONELLA TYPHIMURIUM, Strain/Indicator: TA1535, Metabolic Activation: NONE, Method: PREINCUBATION): inactive; negative | mutagenic call (Test System: AMES SALMONELLA TYPHIMURIUM, Strain/Indicator: TA1537, Metabolic Activation: HAMSTER, LIVER, S-9, AROCLOR 1254, Method: PREINCUBATION): inactive; negative | mutagenic call (Test System: AMES SALMONELLA TYPHIMURIUM, Strain/Indicator: TA1537, Metabolic Activation: NONE, Method: PREINCUBATION): inactive; negative | mutagenic call (Test System: AMES SALMONELLA TYPHIMURIUM, Strain/Indicator: TA1537, Metabolic Activation: RAT, LIVER, S-9, AROCLOR 1254, Method: PREINCUBATION): inactive; negative

O=C(CBr)c1ccc(-c2ccccc2)cc1
mutagenic call [1]: inactive; negative | mutagenic call (Test System: AMES SALMONELLA TYPHIMURIUM, Strain/Indicator: TA98, Metabolic Activation: RAT, LIVER, S-9, PCB, Method: PREINCUBATION): inactive; negative | mutagenic call (Test System: AMES SALMONELLA TYPHIMURIUM, Strain/Indicator: TA100, Metabolic Activation: RAT, LIVER, S-9, PCB, Method: PREINCUBATION): inactive; negative | mutagenic call (Test System: E. COLI, Strain/Indicator: WP2 UVRA, Metabolic Activation: NONE, Method: PREINCUBATION): inactive; negative

CC1(C)C(C=C(Cl)Cl)C1C(=O)OC(C#N)c1ccc(F)c(Oc2ccccc2)c1 (centres undefined)
mutagenic call (End Point: In vitro chromosomal aberrations, Test System: Human lymphocytes, Metabolic Activation: Male Sprague-Dawley rat, liver, S-9, Aroclor 1254): inactive; negative | mutagenic call (End Point: In vitro chromosomal aberrations, Test System: Human lymphocytes, Metabolic Activation: None): inactive; negative | mutagenic call (End Point: In vitro chromosomal aberrations, Test System: Human lymphocytes, Metabolic Activation: S-9 (No details given by DPR evaluator)): inactive; negative | mutagenic call (End Point: In vivo micronucleus, Test System: Bone marrow erythrocytes, Strain/Indicator: Bor:NMRI (SPF Han)/ Female, Species: Mouse, Route: Oral): inactive; negative (no significant effect on frequency of micronucleated polychromatic ery | mutagenic call (End Point: In vivo micronucleus, Test System: Bone marrow erythrocytes, Strain/Indicator: Bor:NMRI (SPF Han)/ Male, Species: Mouse, Route: Oral): inactive; negative (no significant effect on frequency of micronucleated polychromatic ery | mutagenic call (Test System: Ames Salmonella typhimurium, Strain/Indicator: TA98, Metabolic Activation: None, Method: Plate incorporation): inactive; negative | mutagenic call (Test System: Ames Salmonella typhimurium, Strain/Indicator: TA98, Metabolic Activation: S-9 (Additional details not given by DPR evaluator), Method: Plate incorporation): inactive; negative | mutagenic call (Test System: Ames Salmonella typhimurium, Strain/Indicator: TA100, Metabolic Activation: None, Method: Plate incorporation): inactive; negative | mutagenic call (Test System: Ames Salmonella typhimurium, Strain/Indicator: TA100, Metabolic Activation: S-9 (Additional details not given by DPR evaluator), Method: Plate incorporation): inactive; negative | mutagenic call (Test System: Ames Salmonella typhimurium, Strain/Indicator: TA1535, Metabolic Activation: None, Method: Plate incorporation): inactive; negative | mutagenic call (Test System: Ames Salmonella typhimurium, Strain/Indicator: TA1535, Metabolic Activation: S-9 (Additional details not given by DPR evaluator), Method: Plate incorporation): inactive; negative | mutagenic call (Test System: Ames Salmonella typhimurium, Strain/Indicator: TA1537, Metabolic Activation: None, Method: Plate incorporation): inactive; negative | mutagenic call (Test System: Ames Salmonella typhimurium, Strain/Indicator: TA1537, Metabolic Activation: S-9 (Additional details not given by DPR evaluator), Method: Plate incorporation): inactive; negative | mutagenic call (Test System: CHO-HGPRT, Strain/Indicator: CHO-Ki-BH4 cells, Metabolic Activation: None, Method: Forward mutation assay): inactive; negative | mutagenic call (Test System: CHO-HGPRT, Strain/Indicator: CHO-Ki-BH4 cells, Metabolic Activation: S-9 (No additional details presented by DPR evaluator), Method: Forward mutation assay): inactive; negative | mutagenic call (Test System: UDS Rat hepatocytes, Strain/Indicator: Thymidine incorporation, Metabolic Activation: None, Method: Autoradiography): inactive; negative

Oc1ccc2sc3ccccc3c2c1
mutagenic call (Test System: CHINESE HAMSTER OVARY, Strain/Indicator: CHO-K1-BH4 (HGPRT)/6-THIOGUANINE, Metabolic Activation: RAT, LIVER, S-9, AROCLOR (4%)): active; positive

Cc1nc2c(C)c(C)c3c(nc(N)n3C)c2nc1C
mutagenic call (Test System: AMES SALMONELLA TYPHIMURIUM, Strain/Indicator: TA98, Metabolic Activation: RAT, LIVER, S-9, AROCLOR 1254, Method: STANDARD PLATE): active; positive

Cc1ccc(C(O)(P(=O)(O)O)P(=O)(O)O)cc1N(CCCl)CCCl
mutagenic call [2]: inactive; negative | mutagenic call (Test System: AMES SALMONELLA TYPHIMURIUM, Strain/Indicator: TA98, Metabolic Activation: RAT, LIVER, S-9, AROCLOR, Method: STANDARD PLATE): inactive; negative | mutagenic call [3]: inactive; negative | mutagenic call (Test System: AMES SALMONELLA TYPHIMURIUM, Strain/Indicator: TA100, Metabolic Activation: RAT, LIVER, S-9, AROCLOR, Method: STANDARD PLATE): inactive; negative | mutagenic call (Test System: AMES SALMONELLA TYPHIMURIUM, Strain/Indicator: TA1535, Metabolic Activation: NONE, Method: STANDARD PLATE): inactive; negative | mutagenic call (Test System: AMES SALMONELLA TYPHIMURIUM, Strain/Indicator: TA1535, Metabolic Activation: RAT, LIVER, S-9, AROCLOR, Method: STANDARD PLATE): active; positive | mutagenic call (Test System: AMES SALMONELLA TYPHIMURIUM, Strain/Indicator: TA1537, Metabolic Activation: NONE, Method: STANDARD PLATE): inactive; negative | mutagenic call (Test System: AMES SALMONELLA TYPHIMURIUM, Strain/Indicator: TA1537, Metabolic Activation: RAT, LIVER, S-9, AROCLOR, Method: STANDARD PLATE): inactive; negative | mutagenic call (Test System: AMES SALMONELLA TYPHIMURIUM, Strain/Indicator: TA1538, Metabolic Activation: NONE, Method: STANDARD PLATE): inactive; negative | mutagenic call (Test System: AMES SALMONELLA TYPHIMURIUM, Strain/Indicator: TA1538, Metabolic Activation: RAT, LIVER, S-9, AROCLOR, Method: STANDARD PLATE): inactive; negative
